# Patent US8883410B2, “Method for determining the stability of organic methyleneamines in the presence of semicarbazide-sensitive amine oxidase” (Sanofi, priority 2007, dated 2014)
# Target: T1, human SSAO, full-length, C-terminal 6xHIS tag (Homo sapiens, UniProt Q16853)
# T1 construct: expressed in transfected cells; cell lysate
# T1 sequence (Q16853 1-763): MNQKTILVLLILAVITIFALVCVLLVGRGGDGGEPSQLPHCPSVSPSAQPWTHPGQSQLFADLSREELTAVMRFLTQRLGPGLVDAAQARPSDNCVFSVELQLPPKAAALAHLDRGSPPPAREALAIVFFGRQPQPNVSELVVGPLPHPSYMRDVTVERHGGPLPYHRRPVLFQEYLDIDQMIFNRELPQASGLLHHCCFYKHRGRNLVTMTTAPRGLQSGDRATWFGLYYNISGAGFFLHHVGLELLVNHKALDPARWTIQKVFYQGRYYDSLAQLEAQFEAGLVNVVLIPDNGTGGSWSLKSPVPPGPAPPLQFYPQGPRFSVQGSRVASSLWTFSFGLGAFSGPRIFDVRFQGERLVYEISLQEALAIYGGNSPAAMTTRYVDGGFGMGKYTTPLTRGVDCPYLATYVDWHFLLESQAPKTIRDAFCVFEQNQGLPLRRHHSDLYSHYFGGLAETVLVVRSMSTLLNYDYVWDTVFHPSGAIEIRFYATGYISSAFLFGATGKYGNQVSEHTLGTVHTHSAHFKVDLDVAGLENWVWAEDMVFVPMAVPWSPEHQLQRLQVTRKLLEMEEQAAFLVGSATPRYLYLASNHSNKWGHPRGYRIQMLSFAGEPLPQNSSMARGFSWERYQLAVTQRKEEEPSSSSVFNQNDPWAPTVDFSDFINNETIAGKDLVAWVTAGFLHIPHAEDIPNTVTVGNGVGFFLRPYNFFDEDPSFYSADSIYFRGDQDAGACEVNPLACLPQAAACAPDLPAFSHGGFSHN
# Assay: Benzylamine stability in lysate of cells expressing full-length SSAO with C-terminal 6xHIS tag, LC/MS/MS
# Assay type: in vitro ADME
# Experimental: The expression constructs were prepared by cloning these PCR products into the pCDNA5-FRT-To-DEST vector (Invitrogen, Gateway System™). The forward and reverse DNA sequence of each construct was confirmed including expressed sequences and at least 100 base pairs either side of this. Stable cell lines for Flp-In CHO, Flp-In CHO T-Rex, and Flp-In HEK 293 (Invitrogen, Flp-In system™) were generated using these 6 constructs according to manufacturer's instructions. Cells were co-transfected with the regulatory vector, pOG44, and each of the pCDNA5-FRT-To-DEST constructs using Lipfectamine (Invitrogen) according to manufacturer's instructions. Thus, 18 cell lines were generated: CHO Flp-In full-length SSAO; CHO Flp-In full-length SSAO with C-terminal 6×HIS tag; CHO Flp-In T1 SSAO; CHO Flp-In T1 SSAO with C-terminal 6×HIS tag; CHO Flp-In T2 SSAO; CHO Flp-In T2 SSAO with C-terminal 6×HIS tag; CHO T-Rex Flp-In full-length SSAO; CHO T-Rex Flp-In full-length SSAO with C-terminal 6×HIS tag; CHO T-Rex Flp-In T1 SSAO; CHO T-Rex Flp-In T1 SSAO with C-terminal 6×HIS tag; CHO T-Rex Flp-In T2 SSAO; CHO Flp-In T2 SSAO with C-terminal 6×HIS tag; HEK 293 Flp-In full-length SSAO; HEK 293 Flp-In full-length SSAO with C-terminal 6×HIS tag; HEK 293 Flp-In T1 SSAO; HEK 293 Flp-In T1 SSAO with C-terminal 6×HIS tag; HEK 293 Flp-In T2 SSAO; HEK 293 Flp-In T2 SSAO with C-terminal 6×HIS tag.
# Adherent CHO cells were cultured at 37° C., 5% CO2 in media containing Ham's F12, 10% fetal bovine serum, 2 mM L-glutamine, 1% Penicillin/Streptomycin, 300 μM hygromycin B. Adherent HEK 293 cells were cultured at 37° C., 5% CO2 in D-MEM (high glucose), 10% fetal bovine serum, 2 mM L-glutamine, and 200 μM hygromycin B. Stable transformants were identified by loss of zeocin resistance. Once the cells were 80% confluent, SSAO expression was induced by the addition of Tetracycline to 1 μg/mL. Following 18 hours, the cells were harvested using a trypsin treatment of 3 minutes, at room temperature. Cells were washed 3 times in phosphate buffered saline before flash freezing in liquid nitrogen.
# For the preparation of cell lysate for activity testing, frozen cell pellets were resuspended in lysate buffer containing 10 mM Tris-HCl (pH 7.2), 150 mM NaCl, 1.5 mM MgCl2, 1% v/v NP-40 and incubated for 15 minutes on ice. Lysate was cleared by centrifugation 800×g for 10 minutes, 4° C. and stored in aliquots at −80° C. until use. Proteins were determined using Pierce Coomassie Protein Reagent, according to manufacturer's instructions.
# For each assay run, 1 mL of cell lysate (1.5 mg/mL protein) was mixed with benzylamine to 2000 ng/mL final concentration. At each corresponding time point, […] the incubation mixture was transferred to a microcentrifuge tube (1.7 mL) and mixed with 50 μL of acetonitrile. The tubes were vortex mixed briefly to ensure complete mixing and then centrifuged at 10,000×g for 5 minutes. The supernatant was removed and 50 μL was transferred to an autosampler vial and mixed with 50 μL of water before LC/MS/MS analysis. Benzylamine remaining in the lysate was analyzed with LC/MS/MS method.
# LC/MS/MS analysis was performed with a PE Sciex API 3000 mass spectrometer under the following conditions listed below and in Tables 1 and 2: […]
structure (smiles),measurement,setting,value
NCc1ccccc1 [Benzylamine],Benzylamine Remaining (%),"CHO Flp-In T-Rex lysate, 0 min",100%
same,Benzylamine Remaining (%),"CHO Flp-In T-Rex lysate, 10 min",94%
same,Benzylamine Remaining (%),"CHO Flp-In T-Rex lysate, 2 h",59%
same,Benzylamine Remaining (%),"CHO Flp-In lysate, 0 min",100%
same,Benzylamine Remaining (%),"CHO Flp-In lysate, 10 min",101%
same,Benzylamine Remaining (%),"CHO Flp-In lysate, 2 h",73%
same,Benzylamine Remaining (%),"HEK293 lysate, 0 min",100%
same,Benzylamine Remaining (%),"HEK293 lysate, 10 min",105%
same,Benzylamine Remaining (%),"HEK293 lysate, 2 h",98%
